Paper PMC8228537, “Acrylonitrile Derivatives against Trypanosoma cruzi: In Vitro Activity and Programmed Cell Death Study” (Pharmaceuticals, 2021)

How the values were obtained:
[1] = test system: epimastigotes of Trypanosoma cruzi; assay: ATP level analysis (CellTiter-Glo); format: cell-based; details: 24 h with the IC90, CellTiter-Glo, Figure 3
Protocol: Variations in the level of ATP were measured with the CellTiter-Glo® Luminescent Cell Viability Assay (Promega, WI, USA). […] Then, in a white 96-well plate, the epimastigotes were resuspended in 25µL of culture media and mixed with 25 µL of the kit. After 10 min of incubation at room temperature, the luminescence was measured using an EnSpire Multimode Plate Reader® (PerkinElmer). The results were expressed in percentage of production of ATP level relative to the negative control (without any treatment).

[2] = test system: epimastigotes of Trypanosoma cruzi; assay: Mitochondrial membrane potential analysis (JC-1); format: cell-based; details: 24 h with the IC90, JC-1, Tukey test, Figure 2
Protocol: The detection of variations in the mitochondrial membrane potential was evaluated with the JC-1 Mitochondrial Membrane Potential Assay Kit® (Cayman Chemical, Ann Arbor, MI, USA). In a 24-well plate, 500 µL of epimastigotes at 10^6 parasites per ml were added with the inhibitory concentration 90 (IC90) of the compounds. After 24 h of incubation at 26 °C, the epimastigotes were centrifuged (3000 rpm, 10 min, 4 °C), resuspended in 50µL of JC-1 buffer and added to a black 96-well plate with 5 µL of JC-1. After 30 min of incubation at 26 °C, the green and red fluorescence were measured using an EnSpire Multimode Plate Reader® (PerkinElmer). Results were expressed in percentage relative to negative control (without treatment) of the ratio 595/535 nm (J-aggregates/J-monomers).

[3] = Cytotoxicity, alamarBlue, murine macrophages; format: cell-based; details: mouse, J774A.1 murine macrophage cell line, J774A.1 murine macrophages, mean ± SD
Protocol: (§1) The cytotoxicity was evaluated against murine macrophages (J774A.1) using the same method mentioned in the antiparasitic assay, based on the alamarBlue Cell Viability Reagent®. In a sterile 96-well plate, 10^4 cells per well were added, then, after the complete adhesion, serial dilutions of the 32 compounds, using a deep well plate, and a 10% of alamarBlue® were joined.

[4] = test system: epimastigote stage of T. cruzi; assay: Antiparasitic activity, alamarBlue, epimastigotes; format: cell-based, Trypanosoma cruzi; details: for Selectivity index (SI): ratio of CC50 for J774A.1 and IC50 for epimastigotes of T. cruzi
Protocol: Epimastigotes of Trypanosoma cruzi (Y strain) were used in this study and cultured in liver infusion tryptose (LIT) medium supplemented with 10% of foetal bovine serum (FBS) at 26 °C.
In a sterile 96-well plate, a serial dilution of acrylonitriles was carried out in LIT medium supplemented with 10% FBS with a final volume of 100 µL. Parasites were added to wells to reach a concentration of 10^5 parasites per well. Finally, a 10% of alamarBlue Cell Viability Reagent® (ThermoFisher Scientific, Waltham, MA, USA) was added into each well, and the plate was incubated for 72 h at 26°C.

[5] = test system: J774A.1 murine macrophage cell line; assay: Cytotoxicity, alamarBlue, murine macrophages; format: cell-based; details: J774A.1 murine macrophages, 24 h, mean ± SD
Protocol: as §1

## O=C(Cn1ccnc1[N+](=O)[O-])NCc1ccccc1 [BENZ, benznidazole, reference compound]
[1]
  Percentage of ATP level relative to untreated control: 18.26%
[2]
  Variations in the mitochondrial membrane potential relative to negative control: decreasing the inter-membrane potential of the mitochondria
[3]
  CC50 at 24 h: > 1500 µM

## N#CC=CC(=O)N1C(=O)OC[C@H]1c1ccccc1 [Compound Q31, (E)-(R,E)-4-Oxo-4-(2-oxo-4-phenyloxazolidin-3-yl)but-2-enenitrile]
[4]; epimastigote stage of T. cruzi (Y strain), 72 h, alamarBlue, mean ± SD, NA: not active
  IC50: 20.38 ± 0.13 µM
[4]
  Selectivity index (SI): 0.51
[5]
  CC50: 10.4 ± 1.06 µM

## N#CC=CC(=O)N1C(=O)OC[C@H]1c1ccccc1 [Compound Q32, (Z)-(R,Z)-4-Oxo-4-(2-oxo-4-phenyloxazolidin-3-yl)but-2-enenitrile]
[4]
  Selectivity index (SI): 0.78
[5]
  CC50: 2.89 ± 0.74 µM
